The values below come from US20240043450A1, “NEW COMPOUND” (JANSSEN PHARMACEUTICA NV, priority 2020, published 2024).

Structures are written as SMILES. pEC50, pIC50: −log10 of the molar value. Bounds are passed on as bounds.

What is called pIC50 is the IC50 on a negative log10 scale, so that one unit is a factor of ten. What is called pEC50 is the EC50 on a negative log10 scale, so that one unit is a factor of ten. Usually melting point stands for the temperature of the solid-liquid transition.

The target of one series is T1, NLRP3 (Homo sapiens, UniProt Q96P20).
T1 construct: human peripheral blood mononuclear cells (PBMCs) were isolated from blood; endogenous in cells; host or cells: primary human PBMCs from healthy donors
T1 sequence (Q96P20 whole entry): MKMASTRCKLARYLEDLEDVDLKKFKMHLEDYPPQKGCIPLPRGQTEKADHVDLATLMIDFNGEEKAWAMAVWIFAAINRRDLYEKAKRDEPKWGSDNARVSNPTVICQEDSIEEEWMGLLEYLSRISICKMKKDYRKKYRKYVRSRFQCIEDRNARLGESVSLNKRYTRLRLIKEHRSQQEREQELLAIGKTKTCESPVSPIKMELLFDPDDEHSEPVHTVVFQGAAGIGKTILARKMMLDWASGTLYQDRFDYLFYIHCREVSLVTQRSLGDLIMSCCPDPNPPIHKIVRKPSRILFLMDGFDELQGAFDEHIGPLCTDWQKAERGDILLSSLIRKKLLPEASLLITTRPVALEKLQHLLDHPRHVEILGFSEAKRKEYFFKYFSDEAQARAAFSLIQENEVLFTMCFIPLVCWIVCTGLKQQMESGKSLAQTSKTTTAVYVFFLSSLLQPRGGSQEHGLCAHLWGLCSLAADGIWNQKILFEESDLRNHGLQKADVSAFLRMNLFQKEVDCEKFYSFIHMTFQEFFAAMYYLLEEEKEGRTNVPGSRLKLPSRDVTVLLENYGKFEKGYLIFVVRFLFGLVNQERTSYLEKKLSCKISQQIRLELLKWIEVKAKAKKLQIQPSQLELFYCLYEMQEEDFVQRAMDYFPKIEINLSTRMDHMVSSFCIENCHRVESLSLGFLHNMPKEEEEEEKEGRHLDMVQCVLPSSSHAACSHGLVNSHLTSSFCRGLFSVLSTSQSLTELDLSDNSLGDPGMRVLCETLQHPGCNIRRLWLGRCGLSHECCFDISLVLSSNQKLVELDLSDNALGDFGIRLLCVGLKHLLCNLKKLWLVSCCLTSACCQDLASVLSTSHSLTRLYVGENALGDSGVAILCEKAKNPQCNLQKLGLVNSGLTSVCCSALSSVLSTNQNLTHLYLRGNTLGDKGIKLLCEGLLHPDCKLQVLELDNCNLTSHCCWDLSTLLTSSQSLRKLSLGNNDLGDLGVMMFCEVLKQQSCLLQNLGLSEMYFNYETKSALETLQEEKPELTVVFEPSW
Put plainly: PBMC assay: IL-1β levels in supernatant of LPS-stimulated human PBMCs (MSD). The conditions noted are these: 30 min compound pre-incubation, 100 ng/ml LPS for 6 hrs, IL-1β in supernatant, read-out: IL-1B IC50. The class given is cell-based. As to the method:
The activity of a compound according to the present invention can be assessed by in vitro methods.
Peripheral venous blood was collected from healthy individuals and human peripheral blood mononuclear cells (PBMCs) were isolated from blood by Ficoll-Histopaque (Sigma-Aldrich, A0561) density gradient centrifugation. After isolation, PBMCs were stored in liquid nitrogen for later use. Upon thawing, PBMC cell viability was determined in growth medium (RPMI media supplemented with 10% fetal bovine serum, 1% Pen-Strep and 1% L-glutamine). […] PBMCs were added at a density of 7.5×10^4 cells per well and incubated for 30 min in a 5% CO2 incubator at 37° C. LPS stimulation was performed by addition of 100 ng/ml LPS (final concentration, Invivogen, tlrl-smlps) for 6 hrs followed by collection of cellular supernatant and the analysis of IL-1β […] and TNF cytokines levels […] via MSD technology according to manufacturers' guidelines (MSD, K15A0H).

The next series relates to TNF. As to the kind of experiment: PBMC assay: TNF cytokine levels in supernatant of LPS-stimulated human PBMCs (MSD). The class given is cell-based. The conditions noted are these: Homo sapiens, PBMC, 30 min compound pre-incubation, 100 ng/ml LPS for 6 hrs. As to the method:
Peripheral venous blood was collected from healthy individuals and human peripheral blood mononuclear cells (PBMCs) were isolated from blood by Ficoll-Histopaque (Sigma-Aldrich, A0561) density gradient centrifugation. After isolation, PBMCs were stored in liquid nitrogen for later use. Upon thawing, PBMC cell viability was determined in growth medium (RPMI media supplemented with 10% fetal bovine serum, 1% Pen-Strep and 1% L-glutamine). Compounds were spotted in a 1:3 serial dilution in DMSO and diluted to the final concentration in 30 μl medium in 96 well plates (Falcon, 353072). PBMCs were added at a density of 7.5×10^4 cells per well and incubated for 30 min in a 5% CO2 incubator at 37° C. LPS stimulation was performed by addition of 100 ng/ml LPS (final concentration, Invivogen, tlrl-smlps) for 6 hrs followed by collection of cellular supernatant and the analysis of IL-1β […] and TNF cytokines levels […] via MSD technology according to manufacturers' guidelines (MSD, K15A0H).
The IC50 values (for IL-1β) and EC50 values (TNF) were obtained on compounds of the invention/examples, and are depicted in the following table: […]

With `O=C(Cn1nc(C2CC2)c2nc(C3CC3)sc2c1=O)Nc1ccc2nncn2c1` [F-26], the melting point was found to be 285 °C. For the same compound, at NLRP3, the pIC50 was 6.90. Also, the pEC50 in the series with TNF is 4.97.
Compound `C[C@]1(O)C[C@@H](NC(=O)Cn2nc(C3CC3)c3nc(C4CC4)sc3c2=O)C1` [F-27] yielded a melting point of 198.2 °C. Also, at NLRP3, the negative-log IC50 (pIC50) is 6.11. In addition, the negative-log EC50 (pEC50) in the series with TNF was less than 4.70.
The corresponding values for `CC(C)c1nn(CC(=O)Nc2ccc3cncn3c2)c(=O)c2sc(C3CC3)nc12` [F-28] are 195.8 °C, 7.01 and 5.20.
The corresponding values for `CC(C)c1nn(CC(=O)Nc2ccn3ccnc3c2)c(=O)c2sc(C3CC3)nc12` [F-29] are 215.5 °C, 6.81 and 4.91.
The like results for `Cc1nc2ccc(NC(=O)Cn3nc(C(C)C)c4nc(C5CC5)sc4c3=O)cn2n1` [F-30] were, in that order, 204.6 °C, 6.63 and 4.71.
For `CC(C)c1nn(CC(=O)Nc2ccn3ccnc3n2)c(=O)c2sc(C3CC3)nc12` [F-34], the melting point is 258 °C. Further, the pIC50 at NLRP3 was 6.16. In the series with TNF, this compound had a negative logarithm of the EC50 (pEC50) of 5.08.
The like results for `Cc1nnc2cc(NC(=O)Cn3nc(C(C)C)c4nc(C5CC5)sc4c3=O)ccn12` [F-35] were, in that order, 282.4 °C, 5.93 and less than 4.70.
The corresponding values for `CC(C)c1nn(CC(=O)Nc2cnc3nccn3c2)c(=O)c2sc(C3CC3)nc12` [F-37] are 147.1 °C, 6.61 and less than 4.70.
On to `CC(C)c1nn(CC(=O)Nc2ccn3ncnc3c2)c(=O)c2sc(C3CC3)nc12` [F-38], for which the melting point was 203.8 °C. At NLRP3, the pIC50 was 6.45. Further, in the series on TNF, the pEC50 is 4.81.
`CC(C)c1nn(CC(=O)Nc2ccc3nnc(C(F)F)n3c2)c(=O)c2sc(C3CC3)nc12` [F-39] showed a melting point of 216.3 °C. For the same compound, the pIC50 on NLRP3 was 6.35. In the series on TNF, this compound gave a pEC50 of 4.88.
The like results for `CC(C)c1nn(CC(=O)Nc2cc(Br)c3nncn3c2)c(=O)c2sc(C3CC3)nc12` [F-41, N-(8-bromo-[1,2,4]triazolo[4,3-a]pyridin-6-yl)-2-(2-cyclopropyl-4-isopropyl-7-oxothiazolo[4,5-d]pyridazin-6(7H)-yl)acetamide] were, in that order, 280.9 °C, 6.58 and less than 4.70.
The like results for `CC(C)c1nn(CC(=O)Nc2ccc3ncoc3c2)c(=O)c2sc(C3CC3)nc12` [F-43] were, in that order, 194.9 °C, 6.99 and 5.02.
The corresponding values for `CC(C)c1nn(CC(=O)Nc2ccc(C(F)F)nc2)c(=O)c2sc(C3CC3)nc12` [F-45] are 170.1 °C, 6.04 and 4.76.
The compound `CC(C)c1nn(CC(=O)Nc2ccc(=O)n(C)c2)c(=O)c2sc(C3CC3)nc12` [F-46] yielded a melting point of 240.9 °C. The pIC50 on NLRP3 was 6.86. The same compound had a pEC50 in the series on TNF of less than 4.70.
`CC(C)c1nn(CC(=O)Nc2cc(Cl)c(=O)n(C(F)F)c2)c(=O)c2sc(C3CC3)nc12` [F-48]: the melting point was 206.7 °C. At NLRP3, the pIC50 was 5.84. In the series on TNF, this compound gave a negative-log EC50 (pEC50) of 4.75.
`CC(C)c1nn(CC(=O)Nc2ccc3nnc(C(F)(F)F)n3n2)c(=O)c2sc(C3CC3)nc12` [F-49, 2-(2-cyclopropyl-4-isopropyl-7-oxo-thiazolo[4,5-d]pyridazin-6-yl)-N-[3-(trifluoromethyl)-[1,2,4]triazolo[4,3-b]pyridazin-6-yl]acetamide] displayed a melting point of 223.8 °C. Moreover, on NLRP3, the pIC50 is 6.34. Moreover, in the series on TNF, the pEC50 was less than 4.70.
The like results for `CC(C)c1nn(CC(=O)Nc2cc(C(F)(F)F)ncn2)c(=O)c2sc(C3CC3)nc12` [F-50] were, in that order, 172 °C, less than 4.70 and less than 4.70.
The corresponding values for `CC(C)c1nn(CC(=O)Nc2ccc3nccn3n2)c(=O)c2sc(C(C)(F)F)nc12` [F-53] are 206.5 °C, 6.67 and 4.93.
The corresponding values for `O=C(Cn1nc(C2CC2)c2nc(C3CC3)sc2c1=O)Nc1ccc2nncn2n1` [F-54] are 248.3 °C, 6.82 and roughly 4.76.
Consider `CC(C)c1nn(CC(=O)Nc2cc(F)[nH]c(=O)c2)c(=O)c2sc(C3CC3)nc12` [F-55], for which the melting point came to 292.7 °C. Moreover, the pIC50 on NLRP3 was 6.35. Moreover, in the series with TNF, the pEC50 was less than 4.70.
The corresponding values for `Cc1nnc2ccc(NC(=O)Cn3nc(C(C)C)c4nc(C5CC5)sc4c3=O)nn12` [F-56] are 250 °C, 6.96 and 4.97.
The corresponding values for `CC(C)c1nn(CC(=O)Nc2ccc3nncn3n2)c(=O)c2sc(C3CC3)nc12` [F-57] are 245.4 °C, 7.72 and 5.31.
Turning to `CC(C)c1nn(CC(=O)Nc2ccc3nccn3n2)c(=O)c2sc(C3CC3)nc12` [F-59], the melting point came out at 201.7 °C. Moreover, the negative-log IC50 (pIC50) at NLRP3 is 7.16. In the series with TNF, this compound gave a pEC50 of 5.67.
